Tested on: anesthetized dogs
Assay: Myocardial oxygen consumption, coronary flow, cardiac output in anesthetized dogs, iv
Type: in vivo
Conditions: c3-c8 5,15,30,60,90,120 min after administration; for cardiac output, x ± s / myocardial oxygen uptake, x ± s / coronary artery resistance, x ± s / myocardial oxygen consumption, x ± s / total peripheral resistance (TPR), x ± s: c2 0 min before
Description: Isosorbide Dinitrate control group were medicated by continuous intravenous infusion and other groups by intravenous injection.
The animals were anesthetised with 3% pentobarbital sodium iv at the dose of 30 mg/kg. Tracheal intubation was performed and SC-M5 anesthesia respirator (manufactured by Shanghai Medical Instrument Factory, frequency: 16˜18 per min, tidal volume: 350˜550 ml) was connected. Bilateral femoral arteries were separated for blood sampling and analyzing and measurement of mean blood pressure. Thoracotomy at the fourth intercostal space was performed to expose the heart and to open the pericardium to make pericardial hammock. Ascending aortic root and upper part of left branch of anterior descending coronary artery were dissociated to put respectively probes of electromagnetic flowmeter (MFV-1100/1200, made by Japanese Nihon Kohden Company) to measure cardiac output and coronary artery flow rate. Right jugular vein was separated for insertion of a cardiac catheter that was guided into coronary venous sinuses before fixation. Synchronously, blood was sampled by drawing from coronary sinus and femoral artery (0.5% heparin was added for anticoagulation). pO2 and pH were detected with a blood gas analyzer (DH-1830 Blood Gas Acid-base Analyze, Nanjing Ananalysis Apparatus Factor) and the values were converted to artery and venous oxygen content. After intravenous infusion of control solvent or the drug, constant infusion for all groups was completed with an electronic constant flow pump (SH-88AB Controllable Intravenous Injector made by Quanzhou Lizhong Electronic Medical Instrument Factory). Both artery and venous blood gas before administration or 5, 15, 30, 60, 90 and 120 min after administration was analyzed and mean blood pressure and cardiac output at 0, 5, 15, 30, 60, 90 and 120 min were observed.
Myocardial oxygen consumption(ml/min/100 g)=coronary flow ml/min/100 g×artery oxygen−coronary sinus oxygen ml %).
Myocardial oxygen uptake (%)=(artery oxygen ml %−coronary sinus oxygen ml %)/artery oxygen ml %
Total peripheral resistance of general circulation(dyn·s·cm−5)=mean arterial blood pressure[MAP(KPa)]×80/cardiac output[CO(L/min)]=mean arterial blood pressure[MAP(mmHg)]×10.6/cardiac output[CO(L/min)]
Coronary resistance[Kpa/ml/min]=mean arterial blood pressure[MAP(KPa)]/coronary artery flow.

[1] = TSG 5 mg/kg iv, before administration, 0 min
[2] = TSG 5 mg/kg iv, 5 min after administration
[3] = TSG 5 mg/kg iv, 15 min after administration
[4] = TSG 5 mg/kg iv, 30 min after administration
[5] = TSG 5 mg/kg iv, 60 min after administration
[6] = TSG 5 mg/kg iv, 90 min after administration
[7] = TSG 5 mg/kg iv, 120 min after administration
[8] = TSG 10 mg/kg iv, 0 min, before administration
[9] = TSG 10 mg/kg iv, 5 min after administration
[10] = TSG 10 mg/kg iv, 15 min after administration
[11] = TSG 10 mg/kg iv, 30 min after administration
[12] = TSG 10 mg/kg iv, 60 min after administration
[13] = TSG 10 mg/kg iv, 90 min after administration
[14] = TSG 10 mg/kg iv, 120 min after administration
[15] = TSG 10 mg/kg iv, before administration, 0 min

3,4′,5-trihydroxy-stilbene-3-β-D-glucoside [TSG]
cardiac output, x ± s [1]: 1.09 ± 0.14 L/min | myocardial oxygen uptake, x ± s [1]: 79.5 ± 6.93% | cardiac output, variation % [2]: 3.58 ± 2.00% | coronary artery resistance, variation % [2]: 3.03% | myocardial oxygen consumption, variation % [2]: −0.52 ± 1.59% | myocardial oxygen uptake, variation % [2]: 0.15% | total peripheral resistance (TPR), variation % [2]: −0.82 ± 2.72% | cardiac output, variation % [3]: 3.47 ± 0.97% | coronary artery resistance, variation % [3]: 2.18 ± 2.46% | total peripheral resistance (TPR), variation % [3]: 1.31 ± 2.04% | cardiac output, variation % [4]: 5.25 ± 2.62% | coronary artery resistance, variation % [4]: 0.02 ± 3.86% | myocardial oxygen consumption, variation % [4]: −0.59 ± 2.68% | myocardial oxygen uptake, variation % [4]: −5.76 ± 5.34 % | total peripheral resistance (TPR), variation % [4]: 0.90 ± 1.20% | cardiac output, variation % [5]: 6.05 ± 2.06 % | coronary artery resistance, variation % [5]: −3.62 ± 3.63% | myocardial oxygen consumption, variation % [5]: 0.68 ± 1.74% | myocardial oxygen uptake, variation % [5]: −6.24 ± 4.39 % | total peripheral resistance (TPR), variation % [5]: 0.20 ± 1.19% | cardiac output, variation % [6]: 5.98 ± 2.02 % | coronary artery resistance, variation % [6]: −4.03 ± 2.13% | myocardial oxygen consumption, variation % [6]: −0.91 ± 2.81% | myocardial oxygen uptake, variation % [6]: −5.51 ± 4.5 % | total peripheral resistance (TPR), variation % [6]: −1.59 ± 3.63% | cardiac output, variation % [7]: 4.86 ± 2.88% | coronary artery resistance, variation % [7]: −3.99 ± 3.34 % | total peripheral resistance (TPR), variation % [7]: −2.75 ± 3.55% | coronary artery resistance, x ± s [8]: 0.273 ± 0.032 Kpa/ml/min | myocardial oxygen consumption, x ± s [8]: 214.1 ± 6.66 mL/min.100 g^−1 | total peripheral resistance (TPR), x ± s [8]: 891.8 ± 93.4 dyn·s·cm^−5 | cardiac output, x ± s [9]: 1.13 ± 0.13 L/min | coronary artery resistance, x ± s [9]: 0.286 Kpa/ml/min | myocardial oxygen consumption, x ± s [9]: 211.0 ± 5.44 mL/min.100 g^−1 | myocardial oxygen uptake, x ± s [9]: 78.7% | total peripheral resistance (TPR), x ± s [9]: 890.5 ± 82.2 dyn·s·cm^−5 | cardiac output, x ± s [10]: 1.14 ± 0.14 L/min | coronary artery resistance, x ± s [10]: 0.278 ± 0.028 Kpa/ml/min | total peripheral resistance (TPR), x ± s [10]: 891.3 ± 78.1 dyn·s·cm^−5 | cardiac output, x ± s [11]: 1.16 ± 0.13 L/min | coronary artery resistance, x ± s [11]: 0.274 ± 0.035 Kpa/ml/min | myocardial oxygen consumption, x ± s [11]: 208.0 ± 5.3 mL/min.100 g^−1 | myocardial oxygen uptake, x ± s [11]: 71.3 ± 5.28% | total peripheral resistance (TPR), x ± s [11]: 903.4 ± 76.9 dyn·s·cm^−5 | cardiac output, x ± s [12]: 1.18 ± 0.14 L/min | coronary artery resistance, x ± s [12]: 0.267 ± 0.037 Kpa/ml/min | myocardial oxygen consumption, x ± s [12]: 210.3 ± 6.32 mL/min.100 g^−1 | myocardial oxygen uptake, x ± s [12]: 71.7 ± 5.71 % | total peripheral resistance (TPR), x ± s [12]: 878.7 ± 90.9 dyn·s·cm^−5 | cardiac output, x ± s [13]: 1.18 ± 0.15 L/min | coronary artery resistance, x ± s [13]: 0.270 ± 0.040 Kpa/ml/min | myocardial oxygen consumption, x ± s [13]: 209.1 ± 6.38 mL/min.100 g^−1 | myocardial oxygen uptake, x ± s [13]: 72.4 ± 5.51 % | total peripheral resistance (TPR), x ± s [13]: 872.9 ± 98.6 dyn·s·cm^−5 | cardiac output, x ± s [14]: 1.15 ± 0.16 L/min | coronary artery resistance, x ± s [14]: 0.263 ± 0.038 Kpa/ml/min | total peripheral resistance (TPR), x ± s [14]: 863.7 ± 80.0 dyn·s·cm^−5 | cardiac output, x ± s [15]: 1.08 ± 0.15 L/min | myocardial oxygen uptake, x ± s [15]: 80.0 ± 6.55% | cardiac output, variation % [9]: 4.60 ± 3.19% | coronary artery resistance, variation % [9]: 4.63% | myocardial oxygen consumption, variation % [9]: −1.45 ± 1.13% | myocardial oxygen uptake, variation % [9]: −1.46% | total peripheral resistance (TPR), variation % [9]: 0.02 ± 4.07% | cardiac output, variation % [10]: 5.74 ± 2.02 % | coronary artery resistance, variation % [10]: 1.79 ± 3.25% | total peripheral resistance (TPR), variation % [10]: 0.09 ± 2.25% | cardiac output, variation % [11]: 7.43 ± 3.40 % | coronary artery resistance, variation % [11]: 0.21 ± 1.44% | myocardial oxygen consumption, variation % [11]: −2.77 ± 3.75% | myocardial oxygen uptake, variation % [11]: −10.7 ± 4.01 % | total peripheral resistance (TPR), variation % [11]: 1.49 ± 3.81% | cardiac output, variation % [12]: 9.41 ± 4.82 % | coronary artery resistance, variation % [12]: −2.64 ± 2.78% | myocardial oxygen consumption, variation % [12]: −1.75 ± 3.51% | myocardial oxygen uptake, variation % [12]: −10.3 ± 5.25 % | total peripheral resistance (TPR), variation % [12]: −1.42 ± 3.68% | cardiac output, variation % [13]: 9.05 ± 2.24 % | coronary artery resistance, variation % [13]: −1.69 ± 4.78% | myocardial oxygen consumption, variation % [13]: −2.28 ± 3.5% | myocardial oxygen uptake, variation % [13]: −9.32 ± 3.22 % | total peripheral resistance (TPR), variation % [13]: −2.16 ± 2.50% | cardiac output, variation % [14]: 6.53 ± 2.43 % | coronary artery resistance, variation % [14]: −4.10 ± 5.44 % | total peripheral resistance (TPR), variation % [14]: −3.00 ± 4.04%
